Data published in the supplement of paper PMC4862054.

What was measured:
Details in all cases: incubation time: 72 h
MDA-MB-436 [1] = assay: normalised response (% of control), CellTiter-Glo; higher = more viable cells (100 = DMSO, 0 = benzethonium chloride kill control)
Description: (§1)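 DSRT, 72 h incubation, CellTox Green / CellTiter-Glo readout. Signal is normalised to DMSO and benzethonium chloride controls. Value is the normalised response at dose 3.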

BT-549 [2] = assay: as above
Description: as §1

CAL-51 [3] = assay: as above
Description: as §1

HDQ-P1 [4] = assay: as above
Description: as §1

CAL-85-1 [5] = assay: as above
Description: as §1

Hs578T [6] = assay: as above
Description: as §1

CAL-148 [7] = assay: as above
Description: as §1

HCC1599 [8] = assay: as above
Description: as §1

MFM-223 [9] = assay: as above
Description: as §1

HCC1143 [10] = assay: as above
Description: as §1

MDA-MB-231 [11] = assay: as above
Description: as §1

BT-474 [12] = assay: as above
Description: as §1

MDA-MB-453 [13] = assay: as above
Description: as §1

CAL-120 [14] = assay: as above
Description: as §1

SK-BR-3 = assay: as above
Description: as §1

DU-4475 [15] = assay: as above
Description: as §1

HCC1937 [16] = assay: as above
Description: as §1

MDA-MB-468 [17] = assay: as above
Description: as §1

MCF-10A [18] = assay: as above
Description: as §1

MDA-MB-436 [19] = assay: normalised response (% of control), CellTox Green; higher = less cell death (100 = DMSO, 0 = benzethonium chloride kill control)
Summary of the method: (§2)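 Two readouts were taken after 72 h: CellTox Green fluorescence (485/520 nm) first, then CellTiter-Glo luminescence after 10 min at room temperature. Breast cancer cell lines had been seeded as 20 µl suspension into 384-well plates holding compound at 5 concentrations in 10-fold steps across a compound-specific 10,000-fold range. Each value is a normalised signal at a single concentration, with plates scaled to 0.1 % DMSO (100) and a positive kill control (0).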

BT-549 [20] = assay: as above
Summary of the method: as §2

CAL-51 [21] = assay: as above
Summary of the method: as §2

HDQ-P1 [22] = assay: as above
Summary of the method: as §2

CAL-85-1 [23] = assay: as above
Summary of the method: as §2

Hs578T [24] = assay: as above
Summary of the method: as §2

CAL-148 [25] = assay: as above
Summary of the method: as §2

HCC1599 [26] = assay: as above
Summary of the method: as §2

MFM-223 [27] = assay: as above
Summary of the method: as §2

HCC1143 [28] = assay: as above
Summary of the method: as §2

MDA-MB-231 [29] = assay: as above
Summary of the method: as §2

BT-474 [30] = assay: as above
Summary of the method: as §2

MDA-MB-453 [31] = assay: as above
Summary of the method: as §2

CAL-120 [32] = assay: as above
Summary of the method: as §2

DU-4475 [33] = assay: as above
Summary of the method: as §2

HCC1937 [34] = assay: as above
Summary of the method: as §2

MDA-MB-468 [35] = assay: as above
Summary of the method: as §2

MCF-10A [36] = assay: as above
Summary of the method: as §2

SMILES	normalised response (MDA-MB-436 [1])	normalised response (BT-549 [2])	normalised response (CAL-51 [3])	normalised response (HDQ-P1 [4])	normalised response (CAL-85-1 [5])	normalised response (Hs578T [6])	normalised response (CAL-148 [7])	normalised response (HCC1599 [8])	normalised response (MFM-223 [9])	normalised response (HCC1143 [10])	normalised response (MDA-MB-231 [11])	normalised response (BT-474 [12])	normalised response (MDA-MB-453 [13])	normalised response (CAL-120 [14])	normalised response (SK-BR-3)	normalised response (DU-4475 [15])	normalised response (HCC1937 [16])	normalised response (MDA-MB-468 [17])	normalised response (MCF-10A [18])	normalised response (MDA-MB-436 [19])	normalised response (BT-549 [20])	normalised response (CAL-51 [21])	normalised response (HDQ-P1 [22])	normalised response (CAL-85-1 [23])	normalised response (Hs578T [24])	normalised response (CAL-148 [25])	normalised response (HCC1599 [26])	normalised response (MFM-223 [27])	normalised response (HCC1143 [28])	normalised response (MDA-MB-231 [29])	normalised response (BT-474 [30])	normalised response (MDA-MB-453 [31])	normalised response (CAL-120 [32])	normalised response (DU-4475 [33])	normalised response (HCC1937 [34])	normalised response (MDA-MB-468 [35])	normalised response (MCF-10A [36])
COC(=O)C[C@](O)(CCCC(C)(C)O)C(=O)O[C@@H]1C(OC)=C[C@]23CCCN2CCc2cc4c(cc2[C@H]13)OCO4 [Omacetaxine] (100 nM)	20%	18.8%	19.9%	31%	6.28%	28.2%	40.9%	24.4%	55.4%	44.4%	65%	74.6%	56.4%	59%	44.9%	4.3%	41.1%	15.3%	61.5%	77.6%	103%	121%	100%	10.6%	38.3%	83.4%	112%	48.9%	72.7%	92.3%	98.3%	110%	99.4%	97.5%	124%	113%	97.1%
FC(F)c1nc2ccccc2n1-c1nc(N2CCOCC2)nc(N2CCOCC2)n1 [ZSTK474] (100 nM)	88.5%	80.4%	92.6%	83.4%	99%	92.4%	94.7%	98%	97%	99.9%	91.1%	85.3%	86.8%	101%	72.9%	97%	87.7%	96.9%	93%	101%	111%	102%	101%	108%	102%	100%	101%	102%	115%	110%	102%	85.6%	102%	105%	64.3%	97.3%	85%
COc1ccc(C2=N[C@@H](c3ccc(Cl)cc3)[C@@H](c3ccc(Cl)cc3)N2C(=O)N2CCNC(=O)C2)c(OC(C)C)c1 [Nutlin-3] (100 nM)	102%	107%	64%	99.9%	92.4%	103%	115%	105%	102%	105%	102%	101%	108%	99.5%	104%	104%	95.4%	100%	96.7%	64%	99%	97.1%	97.3%	102%	101%	97.2%	102%	95.2%	109%	100%	71.6%	97.3%	102%	102%	87.5%	100%	103%
CC(C)C[C@H](NC(=O)[C@H](Cc1ccccc1)NC(=O)c1cnccn1)B(O)O [Bortezomib] (10 nM)	35.6%	10.1%	96.8%	61.7%	12.3%	66%	98.8%	89.7%	17.6%	74.7%	69.3%	44.5%	69.2%	74.6%	30%	88.6%	64.8%	2.63%	113%	72.3%	97.2%	110%	75.7%	16.3%	71%	87.2%	101%	82%	105%	70.5%	92%	109%	88%	111%	61.9%	-99.2%	74.6%
O=C(c1ccc(OCCN2CCCCC2)cc1)c1c(-c2ccc(O)cc2)sc2cc(O)ccc12 [Raloxifene] (100 nM)	99.9%	98.3%	87.8%	106%	104%	106%	107%	100%	104%	109%	105%	101%	99.7%	99.1%	104%	100%	104%	98.7%	103%	107%	92.5%	97.2%	90.1%	98.3%	94.3%	101%	92.4%	91.7%	99.7%	98.8%	104%	107%	98.8%	103%	108%	102%	93.2%
O=c1[nH]cc(F)c(=O)[nH]1 [Fluorouracil] (100 nM)	105%	109%	105%	102%	98.3%	105%	111%	116%	104%	109%	111%	103%	116%	107%	104%	102%	95.6%	98%	113%	51.5%	96.8%	113%	105%	114%	101%	102%	103%	106%	92.6%	111%	93%	106%	100%	106%	103%	99.4%	114%
C[C@@H]1CCN(C(=O)CC#N)C[C@@H]1N(C)c1ncnc2[nH]ccc12 [Tofacitinib] (50 nM)	98.7%	104%	88.1%	104%	109%	109%	114%	105%	110%	106%	104%	102%	102%	99.8%	104%	106%	96.5%	110%	101%	97.8%	94.2%	113%	114%	99.7%	93.4%	90.6%	116%	107%	104%	104%	103%	103%	99.7%	102%	123%	127%	105%
COc1c(C)cnc(Cn2cnc3c(Cl)nc(N)nc32)c1C [BIIB021] (100 nM)	82.6%	65.9%	82.7%	81.7%	90.8%	101%	88.7%	85%	82.7%	97.9%	109%	106%	81.4%	85.9%	45%	101%	82.1%	81.6%	100%	82%	114%	122%	109%	78.5%	107%	62.7%	109%	97%	107%	107%	95.7%	98.5%	101%	103%	88.4%	108%	91.5%
COc1cc(Nc2ncc(F)c(Nc3ccc4c(n3)NC(=O)C(C)(C)O4)n2)cc(OC)c1OC [Tamatinib] (100 nM)	99%	98.9%	104%	97.9%	96.7%	102%	112%	123%	110%	105%	108%	101%	108%	96.2%	111%	105%	103%	93.8%	104%	104%	94.5%	115%	107%	113%	112%	73.6%	99.2%	91.3%	90.7%	105%	101%	109%	103%	104%	93.6%	83.2%	107%
